# From patent US20170008928A1, “NOVEL PEPTIDES AND PEPTIDE DERIVATIVES AND USES THEREOF” (Novo Nordisk A/S, priority 2015, published 2017)
# Like-named read-outs stand apart in the source and are kept apart here. Starred links: 1 amine or outer side, 2 acyl side, 3 side chain; linkers in the order of their positions; H or OH if unused. Non-standard residues stand in square brackets, D forms with d. Residues, ends and D or L forms follow the SMILES beside them. *: point of attachment. Phe(4-CH2SO3H) = N[C@@H](Cc1ccc(CS(=O)(=O)O)cc1)C(=O)O; C18 diacid = O=C(O)CCCCCCCCCCCCCCCCC(=O)*; γGlu = O=C(O)[C@H](CCC(=O)[*:2])N[*:1]; NMeF = CN[C@@H](Cc1ccccc1)C(=O)O; dNMeD = CN[C@H](CC(=O)O)C(=O)O; Nle = CCCC[C@H](N)C(=O)O; AEEA = NCCOCCOCC(=O)O
# Legend:
# [1] = Chemical stability in 50 mM phosphate buffer pH 7.4, RP-UPLC; assay type: physicochemical
# Experimental: The purpose of this assay is to assess the chemical stability of the derivatives of the invention in aqueous solutions. The chemical stability was investigated by RP-UPLC separation and UV detection.
# Lyophilised samples of the derivative of Example 3 were dissolved in a 50 mM sodium phosphate buffer pH 7.4 containing 70 mM NaCl and 0.05 v/v % polysorbate 80, at a concentration of 1 mg/ml of the derivative (for the Example 3 derivative 1 mg/ml equates 0.54 mM). If necessary, pH was adjusted to 7.4. […]
# RP-UPLC analysis was performed using a Waters Acquity system with the following parameters:
# The following UPLC gradient was used: […]
# Purity of a compound is defined as the area percentage of the compound peak in relation to the total area of all integrated peaks in the chromatogram and is calculated by the software of the apparatus. Absolute purity loss (in percentage points, pp) is determined as the difference in purity between the start sample and the sample incubated for a certain time at a certain temperature. Relative purity loss (in %) is the ratio of absolute purity loss to the purity determined in the start sample.
# [2] = Plasma exposure after the last dose in DIO mini-pigs; assay type: in vivo, Göttingen mini-pigs; details: for AUC(0-t): Göttingen, minipig, plasma, sc, read-out: AUCexposure (0-24 h) after last dose
# Experimental: The CCK derivative was dissolved in the following buffer: 8 mM phosphate, 184 mM propylene glycol, 58 mM phenol, pH 7.4 concentrations ranging from 2000-10000 nmol/mL corresponding to dose volumes ranging from 0.00075-0.001 mL/kg. Liraglutide was dissolved in 8 mM phosphate, 184 mM propylenglycol, 58 mM phenol, pH 8.15 (1600 nmol/mL), dose volume was 0.001 mL/kg and this formulation also served as a vehicle for all 3 treatment groups. Animals were dosed subcutaneously once daily with vehicle, CCK derivative, liraglutide, or liraglutide in combination with the CCK derivative (given as two separate injections in each side of the neck). After the last dose blood samples were obtained in EDTA coated tubes at selected time points for up to 480 hours after dosing. Blood was sampled through central-venous catheters implanted under general anaesthesia after 11 weeks of treatment.
# The resulting plasma was pipetted into Micronic tubes on dry ice, and kept at −20° C. until analysed for plasma exposure of liraglutide and the CCK derivative. Plasma content of the CCK derivative was measured using LC-MS method II, as described in Example 93. Plasma content of liraglutide was measured using LOCI (Luminescence Oxygen Channeling Immunoasssay). LOCI is generally described for the determination of insulin by Poulsen and Jensen in Journal of Biomolecular Screening 2007, vol. 12, p. 240-247. The donor beads were coated with streptavidin, while acceptor beads were conjugated with a monoclonal antibody recognising a C-terminal epitope of the peptide. Another monoclonal antibody, specific for the N-terminus, was biotinylated. The three reactants were combined with the analyte and formed a two-sited immuno-complex. Illumination of the complex released singlet oxygen atoms from the donor beads, which were channelled into the acceptor beads and triggered chemiluminescence which was measured in an Envision plate reader. The amount of light was proportional to the concentration of the compound.
compound,measurement,setting,value
"CCCC[C@H](NC(=O)[C@H](Cc1ccc(CS(=O)(=O)O)cc1)NC(=O)[C@H](CC(=O)O)NC(=O)COCCOCCNC(=O)COCCOCCNC(=O)CC[C@H](NC(=O)CCCCCCCCCCCCCCCCC(=O)O)C(=O)O)C(=O)NCC(=O)N[C@@H](Cc1c[nH]c2ccccc12)C(=O)N[C@@H](CCCC)C(=O)N(C)[C@H](CC(=O)O)C(=O)N(C)[C@@H](Cc1ccccc1)C(N)=O [Example 3, 2-[2-[2-[[2-[2-[2-[[(4S)-4-Carboxy-4-(17-carboxyheptadecanoylamino)butanoyl]amino]ethoxy]ethoxy]acetyl]amino]ethoxy]ethoxy]acetyl-Asp-Phe(4-sulfomethyl)-Nle-Gly-Trp-Nle-DMeAsp-MePhe-amide] ({C18 diacid-γGlu-AEEA-AEEA}-D[Phe(4-CH2SO3H)][Nle]GW[Nle][dNMeD][NMeF]-NH2)","chemical stability, overall","[1]; all three temperatures tested (5, 25, 37° C.), up to at least 6 weeks",very stable
same,short term chemical stability,"[1]; same buffer, 25° C., three days, 25 μM, 100 μM and 500 μM",virtually no degradation
same,AUC(0-t),[2]; CCK derivative high dose group (10 nmol/kg),27.1 µM·h
same,AUC(0-t),[2]; CCK derivative low dose group,4.2 µM·h
same,"AUCexposure (0-24 h) after last dose, CCK derivative","[2]; combination group, CCK derivative […] on top of liraglutide",derivative: 3332000 pM*h
